Laboratory results from patent US9394260B2, “Pyrimidinone carboxamide inhibitors of endothelial lipase” (BRISTOL-MYERS SQUIBB COMPANY, priority 2012, dated 2016).

Target: T1, endothelial lipase (EL) (Homo sapiens, UniProt Q9Y5X9)
T1 construct: transformed by RAGE technology (Athersys) to overexpress endogenous EL; endogenous in cells; conditioned medium used as the enzyme source
T1 sequence (Q9Y5X9 21-500): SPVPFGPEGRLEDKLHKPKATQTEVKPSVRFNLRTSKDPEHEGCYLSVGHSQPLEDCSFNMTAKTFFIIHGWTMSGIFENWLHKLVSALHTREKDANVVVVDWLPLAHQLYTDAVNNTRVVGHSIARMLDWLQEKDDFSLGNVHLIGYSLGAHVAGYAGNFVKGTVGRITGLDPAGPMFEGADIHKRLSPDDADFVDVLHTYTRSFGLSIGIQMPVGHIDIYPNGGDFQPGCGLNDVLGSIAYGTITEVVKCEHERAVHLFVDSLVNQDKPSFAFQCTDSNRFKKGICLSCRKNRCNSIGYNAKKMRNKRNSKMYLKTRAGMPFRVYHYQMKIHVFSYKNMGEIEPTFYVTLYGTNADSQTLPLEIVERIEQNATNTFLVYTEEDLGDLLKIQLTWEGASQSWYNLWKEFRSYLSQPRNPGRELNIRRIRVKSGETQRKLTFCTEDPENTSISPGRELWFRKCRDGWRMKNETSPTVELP
Assay: Endothelial lipase (EL) enzymatic assay with fluorescent substrate A10070 in DMPG vesicles
Assay type: biochemical
Details: conditioned media from HT-1080 cells overexpressing endogenous EL, 20 min preincubation at 37° C.
Experimental: Endothelial lipase activity was measured using a fluorescent substrate, A10070, (Invitrogen, CA) doped into an artificial vesicle containing DMPG (Avanti Polar Lipids) as the excipient. Vesicles were prepared by combining 285 μL of 1 mM DMPG in a 1:1 mixture of MeOH and CHCl3 with 15 μL of 1 mM A10070 in a 1:1 mixture of MeOH and CHCl3. The mixture was dried under nitrogen and resuspended in 150 μL of 50 mM HEPES pH 8.0 buffer containing 100 mM NaCl and 0.2 mM EDTA. The sample was allowed to sit at rt for 15 min and then was sonicated 3×4 mins on ice with a Branson Sonicator using duty cycle 1. This preparation provides vesicles with a mole fraction of 0.05 for the FRET substrate.
The enzymatic assay was measured using white, opaque 96-well half area plates. Each well contained 60 μL of assay buffer (50 mM HEPES pH 8.0, 50 mM NaCl and 1 mM CaCl2) and 2 ul of a DMSO solution containing compound of interest. Conditioned media obtained from HT-1080 cells, which were transformed by RAGE technology (Athersys) to overexpress endogenous EL, was added and the reaction was allowed to incubate for 20 min at 37° C. with gentle agitation. The reaction was started by the addition of 20 μL of a 1:4 dilution of vesicles. The final total reaction volume was 100 μL. The reaction rates were measured on a Gemini plate reader with an excitation wavelength of 488 nm and a emission of 530 nm. Readings were taken every 20 seconds for 10 min with agitation between each reading. The slope of the linear portion of the readout was used to calculate the rate of the reaction.
The exemplified examples disclosed in the present invention were tested in the EL assay described above and found having EL inhibitory activity. A range of EL IC50 values of ≦10 μM (10000 nM) was observed.

| IC50 [nM] | Structure (SMILES) |
| --- | --- |
| 266 | CC(C)(C)OC(=O)N1CCN(c2cccc(CNC(=O)c3[nH]c(=O)[nH]c(=O)c3N)c2)CC1 [Example 33, tert-butyl 4-(3-((5-amino-2,6-dioxo-1,2,3,6-tetrahydro-pyrimidine-4-carboxamido)methyl)phenyl)piperazine-1-carboxylate] |
| 612 | Nc1c(C(=O)NCc2c[nH]nc2-c2ccccc2)[nH]c(=O)[nH]c1=O [Example 30, 5-amino-2,6-dioxo-N-((3-phenyl-1H-pyrazol-4-yl)methyl)-1,2,3,6-tetrahydropyrimidine-4-carboxamide] |
| 7400 | Nc1c(C(=O)NC[C@H]2C[C@@H]2c2ccc(F)cc2)[nH]c(=O)[nH]c1=O [Example 29, 5-amino-N-(((1S,2S)-2-(4-fluorophenyl)cyclopropyl)methyl)-2,6-dioxo-1,2,3,6-tetrahydropyrimidine-4-carboxamide] |
| 4250 | Nc1c(C(=O)NCc2cccc(-c3ccc(F)cc3)c2)[nH]c(=O)[nH]c1=O [Example 25, 5-amino-N-((4′-fluorobiphenyl-3-yl)methyl)-2,6-dioxo-1,2,3,6-tetrahydropyrimidine-4-carboxamide] |
| 9930 | CC(CNC(=O)c1[nH]c(=O)[nH]c(=O)c1N)Oc1ccc(F)cc1 (stereo not drawn) [Example 15, 5-amino-N-(2-(4-fluorophenoxy)propyl)-2,6-dioxo-1,2,3,6-tetrahydropyrimidine-4-carboxamide] |
| 2200 | Nc1c(C(=O)NCc2cccc(-n3cnc4ccccc43)c2)[nH]c(=O)[nH]c1=O [Example 28, N-(3-(1H-benzo[d]imidazol-1-yl)benzyl)-5-amino-2,6-dioxo-1,2,3,6-tetrahydropyrimidine-4-carboxamide] |
| 149 | Nc1c(C(=O)NCCCc2ccc(Cl)c(Cl)c2)[nH]c(=O)[nH]c1=O [Example 2, 5-amino-N-(3-(3,4-dichlorophenyl)propyl)-2,6-dioxo-1,2,3,6-tetrahydropyrimidine-4-carboxamide] |
| 3070 | Nc1c(C(=O)NCC2CCN(C(=O)c3ccccc3)C2)[nH]c(=O)[nH]c1=O (stereo not drawn) [Example 44, 5-amino-N-((1-benzoylpyrrolidin-3-yl)methyl)-2,6-dioxo-1,2,3,6-tetrahydropyrimidine-4-carboxamide] |
| 80 | C[C@H](CCc1cccc(C(F)(F)F)c1)NC(=O)c1[nH]c(=O)[nH]c(=O)c1N [Example 1, (R)-5-Amino-2,6-dioxo-N-(4-(3-(trifluoromethyl)phenyl)butan-2-yl)-1,2,3,6-tetrahydropyrimidine-4-carboxamide] |
| 703 | Nc1c(C(=O)NCc2ccc(Oc3ccccc3)cc2)[nH]c(=O)[nH]c1=O [Example 32, 5-amino-2,6-dioxo-N-(4-phenoxybenzyl)-1,2,3,6-tetrahydropyrimidine-4-carboxamide] |
| 441 | C[C@@H](NC(=O)c1[nH]c(=O)[nH]c(=O)c1N)c1cccc(-c2cnn(CC3CCN(C(=O)OCc4ccccc4)CC3)c2)c1 [Example 161, (R)-benzyl 4-((4-(3-(1-(5-amino-2,6-dioxo-1,2,3,6-tetra-hydropyrimidine-4-carboxamido)ethyl)phenyl)-1H-pyrazol-1-yl)methyl) piperidine-1-carboxylate] |

The next lines start with the compound.

| Structure (SMILES) | IC50 [nM] |
| --- | --- |
| C[C@@H](NC(=O)c1[nH]c(=O)[nH]c(=O)c1O)c1cccc(OCc2ccccc2)c1 [Example 182, (R)-N-(1-(3-(benzyloxy)phenyl)ethyl)-5-hydroxy-2,6-dioxo-1,2,3,6-tetrahydro-pyrimidine-4-carboxamide] | 10 |
| C[C@H](COc1ccc(Cl)cc1F)NC(=O)c1[nH]c(=O)[nH]c(=O)c1N [Example 72, (R)-5-amino-N-(1-(4-chloro-2-fluoro-phenoxy)propan-2-yl)-2,6-dioxo-1,2,3,6-tetrahydropyrimidine-4-carboxamide] | 1390 |
| C[C@@H](NC(=O)c1[nH]c(=O)[nH]c(=O)c1N)c1cccc(-c2cnn(CCc3c[nH]c4ccccc34)c2)c1 [Example 155, (R)-N-(1-(3-(1-(2-(1H-indol-3-yl)ethyl)-1H-pyrazol-4-yl)phenyl)ethyl)-5-amino-2,6-dioxo-1,2,3,6-tetrahydro-pyrimidine-4-carboxamide] | 422 |
| Nc1c(C(=O)NCC2Cc3ccccc3C(c3ccccc3)C2)[nH]c(=O)[nH]c1=O (stereo not drawn) [Example 46, 5-amino-2,6-dioxo-N-((4-phenyl-1,2,3,4-tetrahydronaphthalen-2-yl)methyl)-1,2,3,6-tetrahydropyrimidine-4-carboxamide] | 207 |
| C[C@H](COc1ccccc1-c1nnco1)NC(=O)c1[nH]c(=O)[nH]c(=O)c1N [Example 115, (R)-N-(1-(2-(1,3,4-oxadiazol-2-yl)phenoxy)propan-2-yl)-5-amino-2,6-dioxo-1,2,3,6-tetra-hydropyrimidine-4-carboxamide] | 4990 |
| C[C@H](COc1ccc2c(c1)NC(=O)CC2)NC(=O)c1[nH]c(=O)[nH]c(=O)c1N [Example 120, (R)-5-amino-2,6-dioxo-N-(1-(2-oxo-1,2,3,4-tetrahydroquinolin-7-yloxy)propan-2-yl)-1,2,3,6-tetrahydropyrimidine-4-carboxamide] | 5400 |
| C[C@H](COc1ccc(S(C)(=O)=O)cc1)NC(=O)c1[nH]c(=O)[nH]c(=O)c1N [Example 103, (R)-5-amino-N-(1-(4-(methylsulfonyl)phenoxy)pro-pan-2-yl)-2,6-dioxo-1,2,3,6-tetrahydropyrimidine-4-carboxamide] | 559 |
| COc1cc(C)c(OC)c2c1CC(CNC(=O)c1[nH]c(=O)[nH]c(=O)c1N)CC2 (stereo not drawn) [Example 45, 5-amino-N-((5,8-dimethoxy-6-methyl-1,2,3,4-tetra-hydronaphthalen-2-yl)methyl)-2,6-dioxo-1,2,3,6-tetrahydropyrimidine-4-carboxamide] | 78 |
| C[C@@H](NC(=O)c1[nH]c(=O)[nH]c(=O)c1N)c1cc(-c2cnn(Cc3ccccc3)c2)ccc1O [Example 143, (R)-5-amino-N-(1-(5-(1-benzyl-1H-pyrazol-4-yl)-2-hydroxyphenyl)ethyl)-2,6-dioxo-1,2,3,6-tetrahydro-pyrimidine-4-carboxamide] | 6960 |
| C[C@@H](NC(=O)c1[nH]c(=O)[nH]c(=O)c1N)c1cccc(-c2ccn(Cc3ccccc3)n2)c1 [Example 136, (R)-5-amino-N-(1-(3-(1-benzyl-1H-pyrazol-3-yl)phenyl)ethyl)-2,6-dioxo-1,2,3,6-tetrahydro-pyrimidine-4-carboxamide] | 20 |
| C[C@H](COc1ccc(Cl)c2c1CCC2)NC(=O)c1[nH]c(=O)[nH]c(=O)c1N [Example 65, (R)-5-amino-N-(1-(7-chloro-2,3-dihydro-1H-inden-4-yloxy)propan-2-yl)-2,6-dioxo-1,2,3,6-tetrahydropyrimidine-4-carboxamide] | 223 |
| C[C@H](COc1c(Cl)cccc1Cl)NC(=O)c1[nH]c(=O)[nH]c(=O)c1N [Example 54, (R)-5-amino-N-(1-(2,6-dichloro-phenoxy)propan-2-yl)-2,6-dioxo-1,2,3,6-tetra-hydropyrimidine-4-carboxamide] | 11 |
| CCCOc1cc(F)ccc1CNC(=O)c1c(O)c(=O)n(C)c(=O)n1CCC [Example 176, N-(4-fluoro-2-propoxybenzyl)-5-hydroxy-1-methyl-2,6-dioxo-3-propyl-1,2,3,6-tetra-hydropyrimidine-4-carboxamide] | 4640 |
| Cc1nc2cc(OC[C@@H](C)NC(=O)c3[nH]c(=O)[nH]c(=O)c3N)ccc2s1 [Example 84, (R)-5-amino-N-(1-(2-methyl-benzo[d]thiazol-5-yloxy)propan-2-yl)-2,6-dioxo-1,2,3,6-tetrahydropyrimidine-4-carboxamide] | 2000 |
| C[C@@H](NC(=O)c1[nH]c(=O)[nH]c(=O)c1N)c1cccc(-c2cnn(Cc3nc4ccccc4s3)c2)c1 [Example 160, (R)-5-amino-N-(1-(3-(1-(benzo[d]thiazol-2-ylmethyl)-1H-pyrazol-4-yl)phenyl)ethyl)-2,6-dioxo-1,2,3,6-tetra-hydropyrimidine-4-carboxamide] | 369 |
| C[C@@H](NC(=O)c1[nH]c(=O)[nH]c(=O)c1N)c1ccc2ccccc2c1 [Example 14, (R)-5-amino-N-(1-(naphthalen-2-yl)ethyl)-2,6-dioxo-1,2,3,6-tetrahydropyrimidine-4-carboxamide] | 7510 |
